Experimental findings from ChEMBL document CHEMBL1128147, “Mechanistic support for the stepwise process for inactivation of class A -lactamases by clavulanate” (Bioorg Med Chem Lett, 1995) are described below.

Assay [1] deals with Beta-lactamase TEM (Escherichia coli). In words: Effect on rate of recovery of TEM-2 beta lactamase from transient inhibition.
Assay [2] can be described thus: Partition ratio between Kcat (for beta lactamase) and Kinact (for beta lactamase) was determined.
Assay [3] has as its target Beta-lactamase (Enterobacter cloacae) (UniProt P05364).
Description: Kcat for inactivation of TEM-1 beta-lactamase
Assay [4] in a line: Partition ratio between Kcat and Kinact was determined.
Assay [5] deals with Beta-lactamase (Enterobacter cloacae) (UniProt P05364). The source holds these as a separate data set.
Description: Ks for inactivation of TEM-1 beta-lactamase
The target is the same in assay [6]. This is another data set of the same source.
Description: K2 for inactivation of TEM-1 beta-lactamase
The target is the same in assay [7]. The source holds these as a separate data set.
Description: K3 for inactivation of TEM-1 beta-lactamase

The structures appear in SMILES notation.

Sequence of Beta-lactamase (Enterobacter cloacae) (P05364 21-381 limits assumed): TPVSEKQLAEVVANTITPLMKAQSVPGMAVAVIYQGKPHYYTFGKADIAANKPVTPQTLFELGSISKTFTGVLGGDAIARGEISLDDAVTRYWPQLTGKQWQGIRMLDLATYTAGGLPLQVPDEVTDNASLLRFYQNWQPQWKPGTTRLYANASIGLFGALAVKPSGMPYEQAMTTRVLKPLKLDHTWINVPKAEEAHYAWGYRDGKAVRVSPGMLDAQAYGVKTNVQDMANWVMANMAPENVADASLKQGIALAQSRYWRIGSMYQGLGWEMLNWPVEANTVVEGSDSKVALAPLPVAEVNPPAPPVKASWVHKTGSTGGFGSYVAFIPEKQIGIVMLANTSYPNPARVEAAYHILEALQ

`O=C1C[C@H]2O/C(=C\CO)[C@H](CO)N12` yielded a Rate of recovery in assay [1] of 0.002 s⁻¹.
For the molecule `C/C=C1\O[C@@H]2CC(=O)N2[C@H]1C(=O)O`, the Ratio in assay [2] was 390.
`O=C(O)[C@H]1C(CCO)O[C@@H]2CC(=O)N21` (some centres not stated): the k cat in assay [3] turned out to be 8 s⁻¹. For the same molecule, the Ratio in assay [4] was 3.7e+06. In assay [5], the Ks was 11.6 µM. The molecule further yielded a K2 in assay [6] of 42 s⁻¹. Also, in assay [7], the K3 was determined as 10 s⁻¹.
